Data taken from BindingDB's records for doi:10.1016/j.chembiol.2010.06.007 (Stanford School of Medicine, 2010).
pIC50: −log10 of the molar value.

Target: Dipeptidyl aminopeptidase 1 (Plasmodium falciparum)
Assay: DPAP1 inhibtion was measured using DPAP1-specific fluorogenic assay. IC50 DPAP1 were determined after 30 min incubation of parasite lysates with 5 nM to 100 mM inhibitor. ki values were obtained by fitting the data to Equation 1.

SMILES | pIC50
CCCCC(C(=O)COc1c(F)c(F)cc(F)c1F)n1cc(C2(N)CCCCC2)nn1 (configuration not stated) [HN3019] | 6.25
CCCCC(C(=O)COc1c(F)c(F)cc(F)c1F)n1cc([C@@](C)(N)C2CCCCC2)nn1 (some centres not stated) [ML4046A] | 6.15
CCCCC(C(=O)COc1c(F)c(F)cc(F)c1F)n1cc(C(C)(N)Cc2ccccc2)nn1 (configuration not stated) [ML4053] | < 4.00
CCCCC(C(=O)COc1c(F)c(F)cc(F)c1F)n1cc(C(N)Cc2ccccc2)nn1 (configuration not stated) [ML4068] | 4.13
CCCCC(C(=O)COC(=O)c1c(C)cccc1C)n1cc(C2(N)CCCCC2)nn1 (configuration not stated) [ML4091] | 4.96
CCCCC(C#N)n1cc(C2(N)CCCCC2)nn1 (configuration not stated) [ML4101] | < 4.00
CCCCC(C(=O)COc1c(F)c(F)cc(F)c1F)n1cc(C2(N)CCN(C(N)=O)CC2)nn1 (configuration not stated) [ML4154] | < 4.70
CCCCC(C(=O)COc1c(F)c(F)cc(F)c1F)n1cc(C2(N)CCNCC2)nn1 (configuration not stated) [ML4162] | < 4.70
CCCCC(C(=O)COc1c(F)c(F)cc(F)c1F)n1cc(C2(N)CCN(C(C)=O)CC2)nn1 (configuration not stated) [ML4163] | < 4.70
CCCCC(C(=O)COc1c(F)c(F)cc(F)c1F)n1cc(C2(C)CCCN2)nn1 (configuration not stated) [ML6076] | 6.38

Further lines, results first:

pIC50 | SMILES
< 4.70 | CCCCC(C(=O)COc1c(F)c(F)cc(F)c1F)n1cc([C@](C)(N)C2CCCCC2)nn1 (some centres not stated) [ML4046B]
6.15 | CCCCC(C(=O)COc1c(F)c(F)cc(F)c1F)n1cc(C(C)N)nn1 (configuration not stated) [ML4057]
5.96 | CCCCC(C(=O)COc1c(F)c(F)cc(F)c1F)n1cc(C(C)(C)N)nn1 (configuration not stated) [ML4066]
6.39 | CCCCC(C(=O)COc1c(F)c(F)cc(F)c1F)n1cc(C(C)(N)CCC)nn1 (configuration not stated) [ML4123]
6.15 | CCCCC(C(=O)COc1c(F)c(F)cc(F)c1F)n1cc(C(N)(CCC)CCC)nn1 (configuration not stated) [ML4124]
6.39 | CCCCC(C(=O)COc1c(F)c(F)cc(F)c1F)n1cc(C(N)(CC)CC)nn1 (configuration not stated) [ML4161]
5.11 | CCCCC(C(=O)COc1c(F)c(F)cc(F)c1F)n1cc(C(CCC)(CCC)NC)nn1 (configuration not stated) [ML5004]
